The text below walks through data of patent US6552061B1, “Amino acid derivatives and anti-inflammatory agents” (Ajinomoto Co., Inc., priority 1998, dated 2003).

Where two headings read alike, the source gives them in different places.

What all share (assay type): cell-based
One test has as its system NF-κB. Put plainly: Test for an Activity of Inhibiting NF-κB Activation (gel shift assay, UVB-irradiated human epidermal cells). The conditions noted are these: light or radiation study, read-out: inhibitory rate (%) of NF-κB activation; for inhibition at 1000 µM: concentration 1 mM; for inhibition at 2000 µM: concentration 2 mM; for inhibition at 10 µM: concentration 10 μM; for inhibition at 20 µM: concentration 20 μM; for inhibition at 100 µM: concentration 100 μM; for inhibition at 50 µM: concentration 50 μM. The procedure:
Test for an Activity of Inhibiting NF-κB Activation
(§1) Eighteen hours later, the culture solution was replaced with a phenol red-free medium. The cells were subjected to UV irradiation (UVB: 50 mJ/m^2)using Dermaray M-DMR-80 (supplied by Toshiba Iryo Yohin KK). After from 4 to 5 hours passed, the cells were recovered, and the nucleoproteins were extracted in a usual manner. With respect to the resulting nucleoproteins, NF-κB activated by gel shift assay was detected. The amount of NF-κB was determined by measuring a radioactivity of an NF-κB band using a bio-imaging analyzer BAS 2000 (supplied by Fuji Photo Film). The rate of inhibition of NF-κB activation on the test compound was calculated using formula (III).
Rate (%) of inhibition of NF-κB activation={1−(A1−A3)/(A2−A3)}×100 (III)
A1: radioactivity of an NF-κB band in the addition of the test compound
A2: radioactivity of an NF-κB band in the non-addition of the test compound
A3: radioactivity of an NF-κB band when the test compound was not added, nor was UV irradiation conducted
(In general: A gel shift assay detects complexes by their altered migration in electrophoresis.)

A further test concerns collagenase. Put plainly: Test for an Activity of Inhibiting Collagenase Expression (MMP-1 ELISA, UVA-irradiated human dermal fibroblasts). Conditions: Fibroblast, light or radiation study, 24 h, read-out: inhibitory rate (%) of collagenase expression; for inhibition at 500 µM: concentration 0.5 mM; for inhibition at 1 µM: concentration 1 μM; for inhibition at 10 µM: concentration 10 μM; for inhibition at 1000 µM: concentration 1 mM. Here is the method:
Test for an Activity of Inhibiting Collagenase Expression
The test compound was added to human dermal fibroblasts which had become confluent in a culture plate. Eighteen hours later, the culture solution was replaced with a phenol red-free medium. The cells were subjected to UV irradiation (UVA; 20 J/cm^2) using Dermaray M-DMR-80 (supplied by Toshiba Iryo Yohin KK). After 24 hours passed, the culture solution was recovered, and the collagenase concentration in the culture solution was measured using MMP-1α·ELISA System (supplied by Amersham Corp.). The rate of inhibition of collagenase expression on the test compound was calculated using formula (VI).
Rate (%) of inhibition of collagenase expression={1−(B4−B6)/(B5−B6)}×100 (VI)
B4: collagenase concentration in the addition of the test compound
B5: collagenase concentration in the non-addition of the test compound
B6: collagenase concentration when the test compound was not added, nor was UV irradiation conducted
On the technique in general: In an ELISA, binding on a coated surface is turned into a signal by an enzyme label.

In a further test the test system is IL-1α. Put plainly: Test for an Activity of Inhibiting IL-1α Expression (ELISA, UVB-irradiated human epidermal cells). Conditions: light or radiation study, 24 h, read-out: inhibitory rate (%) of IL-1α expression; for inhibition at 10 µM: concentration 10 μM; for inhibition at 50 µM: concentration 50 μM; for inhibition at 100 µM: concentration 100 μM. Here is the method:
Test for an Activity of Inhibiting IL-1α Expression
The test compound was added to human epidermal cells which had become confluent in a culture plate. Eighteen hours later, the culture solution was replaced with a phenol red-free medium. The cells were subjected to UV irradiation (UVB: 50 mJ/cm^2) using Dermaray M-DMR-80 (supplied by Toshiba Iryo Yohin KK). After 24 hours passed, the culture solution was recovered, and the IL-1α concentration in the culture solution was measured using IL-1α·ELISA System (supplied by Amersham Corp.). The rate of inhibition of IL-1α expression on the test compound was calculated using formula (V).
Rate (%) of inhibition of IL-1α expression={1−(B1−B3)/(B2−B3)}×100 (V)
B1: IL-1α concentration in the addition of the test compound
B2: IL-1α concentration in the non-addition of the test compound
B3: IL-1α concentration when the test compound was not added, nor was UV irradiation conducted

The test system of another test is AP-1. As to the kind of experiment: Test for an Activity of Inhibiting AP-1 Activation (gel shift assay, UVA-irradiated human dermal fibroblasts). Conditions: AP1, light or radiation study, read-out: inhibitory rate (%) of AP-1 activation; for inhibition at 10 µM: concentration 10 μM; for inhibition at 1 µM: concentration 1 μM; for inhibition at 5 µM: concentration 5 μM; for inhibition at 500 µM: concentration 0.5 mM; for inhibition at 1000 µM: concentration 1 mM. Here is the method: Test for an Activity of Inhibiting AP-1 Activation
as §1, with “The test compound was added to human dermal fibroblasts which had become confluent in a culture plate. Eighteen” for “Eighteen”, “(UVA: 20 J/cm^2) using” for “(UVB: 50 mJ/m^2)using”, “AP-1” for “NF-κB”, “(IV).” for “(III).”
Rate (%) of inhibition of AP-1 activation={1−(A4−A6)/(A5−A6)}×100 (IV)
A4: radioactivity of an AP-1 band in the addition of the test compound
A5: radioactivity of an AP-1 band in the non-addition of the test compound
A6: radioactivity of an AP-1 band when the test compound was not added, nor was UV irradiation conducted

As for `CCOC(=O)[C@@H](C)NCc1ccccc1O` [N-(2-hydroxybenzyl)-D-alanine ethyl ester], in the test on NF-κB, the inhibition at 1000 µM came to 90% and the inhibition at 2000 µM was 87%. The inhibition at 500 µM in the test on collagenase came to 108%.

As for `CCCCCCCCCCCCNC(=O)[C@H](C)NCc1ccccc1O` [N-(2-hydroxybenzyl)-L-alanine lauryl amide], the inhibition at 10 µM in the test on IL-1α stood at 69%; in the test with NF-κB, 53%; in the test on AP-1 it was 57%. Moreover, in the test with IL-1α, the inhibition at 50 µM was determined as 73%. In addition, the results for the inhibition at 20 µM in the test with NF-κB and in the test with AP-1 (concentration 20 μM) were 65% and 56%, respectively. For the same molecule, the inhibition at 1 µM in the test with collagenase was found to be 57%.

`CCCCCCCCCCCCOC(=O)[C@H](C)NCc1ccccc1O` [N-(2-hydroxybenzyl)-L-alanine lauryl ester]: the figures for the inhibition at 10 µM with IL-1α, in the test with NF-κB and in the test with collagenase were 23%, 20% and 58%, respectively. The inhibition at 100 µM with IL-1α came out at 72%; in the test with NF-κB it was 81%. Besides, the inhibition at 10000 µM with AP-1 (concentration 10 mM) was 68%.

Turning to `CCCCCCCCCCCCCCCCCCNC(=O)[C@H](C)NCc1ccccc1O` [N-(2-hydroxybenzyl)-L-alanine stearyl amide], the inhibition at 5 µM in the test with IL-1α (concentration 5 μM) amounted to 30%; with AP-1, 47%. Further, the inhibition at 10 µM in the test with IL-1α worked out at 77%. For the same molecule, the inhibition at 1 µM with collagenase and in the test with AP-1 was 72% in each case.

`CCCCCCCCCCCCCCCCCCOC(=O)[C@H](C)NCc1ccccc1O` [N-(2-hydroxybenzyl)-L-alanine stearyl ester]: the inhibition at 1 µM with IL-1α (concentration 1 μM) was determined as 25%; with collagenase it was 57%; in the test with AP-1 it was 20%. The inhibition at 10 µM in the test on IL-1α worked out at 25%; with NF-κB, 31%. In the test on AP-1, the inhibition at 5 µM was found to be 48%.

Take `CCCCCCCCCCCCOC(=O)[C@H](CCC(=O)O)NCc1ccccc1O` [N-(2-hydroxybenzyl)-L-glutamic acid lauryl ester]: the inhibition at 10 µM with IL-1α was 54%; with collagenase it was 49%; in the test with AP-1, 33%. Moreover, the inhibition at 100 µM in the test on NF-κB came to 45%. Further, the inhibition at 1 µM with collagenase was determined as 53%.

For `CCOC(=O)[C@H](Cc1c[nH]cn1)NCc1ccccc1O` [N-(2-hydroxybenzyl)-L-histidine ethyl ester], in the test with NF-κB, the inhibition at 1000 µM amounted to 69% and the inhibition at 2000 µM is 72%. For the same molecule, the inhibition at 100 µM in the test with collagenase (concentration 0.1 mM) turned out to be 44%. Further, in the test with collagenase, the inhibition at 1000 µM is 51%. Further, in the test on AP-1, the inhibition at 500 µM is 20% and the inhibition at 1000 µM was found to be 38%.

As to `CCCCCCCCCCCCNC(=O)[C@H](CC(C)C)NCc1ccccc1O` [N-(2-hydroxybenzyl)-L-leucine lauryl amide], the inhibition at 20 µM in the test on IL-1α (concentration 20 μM) is 27%. The inhibition at 50 µM in the test on IL-1α came out at 79%. In the test on NF-κB, the inhibition at 10 µM is 40% and the inhibition at 50 µM amounted to 89%. In the test with collagenase, the inhibition at 1 µM was 37% and the inhibition at 10 µM came out at 60%.

`CCCCCCCCCCCCOC(=O)[C@H](CC(C)C)NCc1ccccc1O` [N-(2-hydroxybenzyl)-L-leucine lauryl ester]: in the test on NF-κB, the inhibition at 10 µM is 21% and the inhibition at 20 µM came to 23%. Also, in the test on collagenase, the inhibition at 10 µM is 21%.

Regarding `CCNC(=O)[C@H](Cc1ccccc1)NCc1ccccc1O` [N-(2-hydroxybenzyl)-L-phenylalanine ethyl amide], the inhibition at 500 µM in the test with NF-κB (concentration 0.5 mM) is 102%; in the test on collagenase, 27%; in the test on AP-1, 34%. Further, the values for the inhibition at 1000 µM in the test with NF-κB and with AP-1 were 47% and 61%, respectively. Moreover, the inhibition at 100 µM in the test with collagenase (concentration 0.1 mM) worked out at 32%.

`CCCCCCCCCCCCNC(=O)[C@@H]1CCC(=O)N1Cc1ccccc1O` [N-(2-hydroxybenzyl)-L-pyroglutamic acid lauryl amide]: the inhibition at 10 µM was determined as 25% in the test with IL-1α and 23% in the test with collagenase. Besides, the inhibition at 50 µM with IL-1α was 28%; in the test with NF-κB it was 75%; with collagenase (concentration 50 μM) it was 52%. For the same molecule, the inhibition at 100 µM with NF-κB was found to be 74%; in the test on AP-1 (concentration 100 μM), 42%.

`CCCCCCCCCCCCOC(=O)[C@H](Cc1ccc(O)cc1)NCc1ccccc1O` [N-(2-hydroxybenzyl)-L-tyrosine lauryl ester]: in the test with NF-κB (concentration 5 μM), the inhibition at 5 µM was 20%. For the same molecule, the inhibition at 10 µM in the test on NF-κB was found to be 43%; in the test with collagenase, 61%; with AP-1 it was 45%. In the test on AP-1, the inhibition at 1 µM was determined as 19%.

Take `CCOC(=O)CNCc1ccccc1O` [N-(2-hydroxybenzyl)glycine ethyl ester]: the inhibition at 10 µM in the test on collagenase was found to be 39%. In addition, in the test on collagenase (concentration 100 μM), the inhibition at 100 µM is 46%.

As for `CC(=O)Oc1ccccc1C(=O)O` [aspirin, reference compound], the inhibition at 1000 µM in the test on collagenase was -197%; with AP-1 it was -4%. In the test with AP-1 (concentration 5 mM), the inhibition at 5000 µM is 14%.

Consider `C[C@@H]1C[C@H]2[C@@H]3CCC4=CC(=O)C=C[C@]4(C)[C@@]3(F)[C@@H](O)C[C@]2(C)[C@@]1(O)C(=O)CO` [dexamethasone, reference compound], for which the inhibition at 10 µM in the test with IL-1α was determined as 48%; in the test on collagenase, 53%; in the test on AP-1, 34%. The inhibition at 100 µM in the test with IL-1α is 65%. For the same molecule, the inhibition at 1 µM in the test with collagenase worked out at 27%; with AP-1 it was 39%.
